Data reported in patent US10336732B2, “1-heterocyclyl isochromanyl compounds and analogs for treating CNS disorders” (Sunovion Pharmaceuticals Inc., priority 2015, dated 2019).

These compounds were tested on mice (assay: Neuropharmacological assay (SmartCube), behavioral signature of compound-treated mice). Settings: i.p. 15 min before behavioral test, most efficacious dose(s) of 3 doses.
Type: in vivo
Summary of the method: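 Mice received compound i.p. in NMP/PEG/propylene glycol vehicle at 3 doses, 15 min before testing. Video-captured behavior was algorithmically compared with a reference-drug signature database.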
In the case of `Fc1cccc2c1[C@@H]([C@@H]1CCCN1)OCC2` [Compound I-2, (S)-2-((S)-8-fluoroisochroman-1-yl)pyrrolidine], the “AD: ADHD (probability that behavioral signature matches class)” value (shortened to “AD: ADHD”) is reported as “+ (LOQ ≤ + <5%)”, the “AG: analgesic (probability that behavioral signature matches class)” value (from here on “AG: analgesic”) is reported as “+ (LOQ ≤ + <5%)” and the “AX: anxiolytic (probability that behavioral signature matches class)” value (from here on “AX: anxiolytic”) is reported as “++ (5% ≤ ++ <25%)”. The “CE: cognitive enhancer (probability that behavioral signature matches class)” value (shortened to “CE: cognitive enhancer”) was “+ (LOQ ≤ + <5%)”, the “DP: anti-depressant (probability that behavioral signature matches class)” value (“DP: anti-depressant” below) was “+ (LOQ ≤ + <5%)” and the “HA: hallucinogen (probability that behavioral signature matches class)” value (shortened to “HA: hallucinogen”) was “+ (LOQ ≤ + <5%)”. For the same compound, the “MS: mood stabilizer (probability that behavioral signature matches class)” value (from here on “MS: mood stabilizer”) was “++ (5% ≤ ++ <25%)”, the “PS: anti-psychotic (probability that behavioral signature matches class)” value (“PS: anti-psychotic” below) was “++ (5% ≤ ++ <25%)” and the “SD: sedative hypnotic (probability that behavioral signature matches class)” value (from here on “SD: sedative hypnotic”) was “++ (5% ≤ ++ <25%)”. The “UN: uncharacterized CNS activity (probability that behavioral signature matches class)” value (from here on “UN: uncharacterized CNS activity”) was “+ (LOQ ≤ + <5%)” and the “XG: anxiogenic (probability that behavioral signature matches class)” value (“XG: anxiogenic” for short) was “+ (LOQ ≤ + <5%)”. In the case of `Clc1ccc2c(c1)CCO[C@@H]2[C@H]1CCCN1` [Compound I-36, (R)-2-((S)-6-chloroisochroman-1-yl)pyrrolidine], the “AD: ADHD” value is reported as “+ (LOQ ≤ + <5%)”, the “AG: analgesic” value is reported as “++ (5% ≤ ++ <25%)” and the “AX: anxiolytic” value is reported as “++ (5% ≤ ++ <25%)”. The “CE: cognitive enhancer” value was “++ (5% ≤ ++ <25%)”, the “DP: anti-depressant” value was “++ (5% ≤ ++ <25%)” and the “HA: hallucinogen” value was “+ (LOQ ≤ + <5%)”. For the same compound, the “MS: mood stabilizer” value was “++ (5% ≤ ++ <25%)”, the “PS: anti-psychotic” value was “+++ (25% ≤ +++ <50%)” and the “SD: sedative hypnotic” value was “+ (LOQ ≤ + <5%)”. The “UN: uncharacterized CNS activity” value was “++ (5% ≤ ++ <25%)” and the “XG: anxiogenic” value was “+ (LOQ ≤ + <5%)”. In the case of `Fc1ccc2c(c1)CCCO[C@H]2[C@H]1CCCN1` [Compound I-113, (R)-2-((R)-7-fluoro-1,3,4,5-tetrahydrobenzo[c]oxepin-1-yl)pyrrolidine], the “AD: ADHD” value is reported as “+ (LOQ ≤ + <5%)”, the “AG: analgesic” value is reported as “++ (5% ≤ ++ <25%)” and the “AX: anxiolytic” value is reported as “++ (5% ≤ ++ <25%)”. The “CE: cognitive enhancer” value was “++ (5% ≤ ++ <25%)”, the “DP: anti-depressant” value was “+++ (25% ≤ +++ <50%)” and the “HA: hallucinogen” value was “+ (LOQ ≤ + <5%)”. For the same compound, the “MS: mood stabilizer” value was “+ (LOQ ≤ + <5%)”, the “PS: anti-psychotic” value was “++ (5% ≤ ++ <25%)” and the “SD: sedative hypnotic” value was “++ (5% ≤ ++ <25%)”. For the same compound, the “UN: uncharacterized CNS activity” value was “+ (LOQ ≤ + <5%)” and the “XG: anxiogenic” value was “+ (LOQ ≤ + <5%)”. For `CC1(C)CN[C@@H]([C@H]2OCCc3ccccc32)C1` [Compound I-62, (R)-2-((S)-isochroman-1-yl)-4,4-dimethylpyrrolidine], the “AD: ADHD” value was “+ (LOQ ≤ + <5%)”, the “AG: analgesic” value was “++ (5% ≤ ++ <25%)” and the “AX: anxiolytic” value was “++ (5% ≤ ++ <25%)”. For the same compound, the “CE: cognitive enhancer” value was “+++ (25% ≤ +++ <50%)”, the “DP: anti-depressant” value was “++ (5% ≤ ++ <25%)” and the “HA: hallucinogen” value was “+ (LOQ ≤ + <5%)”. The “MS: mood stabilizer” value was “+ (LOQ ≤ + <5%)”, the “PS: anti-psychotic” value was “++ (5% ≤ ++ <25%)” and the “SD: sedative hypnotic” value was “+ (LOQ ≤ + <5%)”. The “UN: uncharacterized CNS activity” value was “+ (LOQ ≤ + <5%)” and the “XG: anxiogenic” value was “+ (LOQ ≤ + <5%)”. In the case of `Fc1ccc2c(c1)[C@H]([C@H]1CCCN1)OCC2` [Compound I-7, (R)-2-((R)-7-fluoroisochroman-1-yl)pyrrolidine], the “AD: ADHD” value is reported as “+ (LOQ ≤ + <5%)”, the “AG: analgesic” value is reported as “++ (5% ≤ ++ <25%)” and the “AX: anxiolytic” value is reported as “++ (5% ≤ ++ <25%)”. The “CE: cognitive enhancer” value was “++ (5% ≤ ++ <25%)”, the “DP: anti-depressant” value was “++ (5% ≤ ++ <25%)” and the “HA: hallucinogen” value was “+ (LOQ ≤ + <5%)”. The “MS: mood stabilizer” value was “+ (LOQ ≤ + <5%)”, the “PS: anti-psychotic” value was “++ (5% ≤ ++ <25%)” and the “SD: sedative hypnotic” value was “+ (LOQ ≤ + <5%)”. For the same compound, the “UN: uncharacterized CNS activity” value was “+++ (25% ≤ +++ <50%)” and the “XG: anxiogenic” value was “+ (LOQ ≤ + <5%)”. For `c1c2c(cc3c1OCO3)[C@@H]([C@@H]1CCCN1)OCC2` [Compound I-53, (S)-2-((S)-7,8-dihydro-5H-[1,3]dioxolo[4,5-g]isochromen-5-yl)pyrrolidine], the “AD: ADHD” value was “+ (LOQ ≤ + <5%)”, the “AG: analgesic” value was “+ (LOQ ≤ + <5%)” and the “AX: anxiolytic” value was “+ (LOQ ≤ + <5%)”. For the same compound, the “CE: cognitive enhancer” value was “+ (LOQ ≤ + <5%)”, the “DP: anti-depressant” value was “+ (LOQ ≤ + <5%)” and the “HA: hallucinogen” value was “+ (LOQ ≤ + <5%)”. The “MS: mood stabilizer” value was “+ (LOQ ≤ + <5%)”, the “PS: anti-psychotic” value was “+ (LOQ ≤ + <5%)” and the “SD: sedative hypnotic” value was “+ (LOQ ≤ + <5%)”. The “UN: uncharacterized CNS activity” value was “+ (LOQ ≤ + <5%)” and the “XG: anxiogenic” value was “+ (LOQ ≤ + <5%)”. With `N#Cc1ccc2c(c1)[C@H]([C@@H]1CCCN1)OCC2` [Compound I-40, (R)-1-((S)-pyrrolidin-2-yl)isochroman-7-carbonitrile] the “AD: ADHD” value was “+ (LOQ ≤ + <5%)”, the “AG: analgesic” value was “+ (LOQ ≤ + <5%)” and the “AX: anxiolytic” value was “++ (5% ≤ ++ <25%)”. The “CE: cognitive enhancer” value was “++ (5% ≤ ++ <25%)”, the “DP: anti-depressant” value was “++ (5% ≤ ++ <25%)” and the “HA: hallucinogen” value was “+ (LOQ ≤ + <5%)”. For the same compound, the “MS: mood stabilizer” value was “+ (LOQ ≤ + <5%)”, the “PS: anti-psychotic” value was “+++ (25% ≤ +++ <50%)” and the “SD: sedative hypnotic” value was “+ (LOQ ≤ + <5%)”. The “UN: uncharacterized CNS activity” value was “+ (LOQ ≤ + <5%)” and the “XG: anxiogenic” value was “+ (LOQ ≤ + <5%)”. In the case of `c1ccc2c(c1)CCO[C@@H]2[C@@H]1CCCCN1` [Compound I-71, (S)-2-((S)-isochroman-1-yl)piperidine], the “AD: ADHD” value is reported as “+ (LOQ ≤ + <5%)”, the “AG: analgesic” value is reported as “+ (LOQ ≤ + <5%)” and the “AX: anxiolytic” value is reported as “+++ (25% ≤ +++ <50%)”. The “CE: cognitive enhancer” value was “++ (5% ≤ ++ <25%)”, the “DP: anti-depressant” value was “++ (5% ≤ ++ <25%)” and the “HA: hallucinogen” value was “+ (LOQ ≤ + <5%)”. For the same compound, the “MS: mood stabilizer” value was “++ (5% ≤ ++ <25%)”, the “PS: anti-psychotic” value was “++ (5% ≤ ++ <25%)” and the “SD: sedative hypnotic” value was “+ (LOQ ≤ + <5%)”. The “UN: uncharacterized CNS activity” value was “+ (LOQ ≤ + <5%)” and the “XG: anxiogenic” value was “+ (LOQ ≤ + <5%)”. With `Cc1ccc2c(c1)[C@H]([C@@H]1CCCN1)OCC2` [Compound I-25, (S)-2-((R)-7-methylisochroman-1-yl)pyrrolidine] the “AD: ADHD” value was “+ (LOQ ≤ + <5%)”, the “AG: analgesic” value was “+++ (25% ≤ +++ <50%)” and the “AX: anxiolytic” value was “++ (5% ≤ ++ <25%)”. The “CE: cognitive enhancer” value was “++ (5% ≤ ++ <25%)”, the “DP: anti-depressant” value was “++ (5% ≤ ++ <25%)” and the “HA: hallucinogen” value was “+ (LOQ ≤ + <5%)”. For the same compound, the “MS: mood stabilizer” value was “+ (LOQ ≤ + <5%)”, the “PS: anti-psychotic” value was “++ (5% ≤ ++ <25%)” and the “SD: sedative hypnotic” value was “+ (LOQ ≤ + <5%)”. The “UN: uncharacterized CNS activity” value was “++ (5% ≤ ++ <25%)” and the “XG: anxiogenic” value was “+ (LOQ ≤ + <5%)”. For `Fc1ccc2c(c1)CCO[C@@H]2[C@@H]1CCCCN1` [Compound I-73, (S)-2-((S)-6-fluoroisochroman-1-yl)piperidine], the “AD: ADHD” value was “+ (LOQ ≤ + <5%)”, the “AG: analgesic” value was “++ (5% ≤ ++ <25%)” and the “AX: anxiolytic” value was “++ (5% ≤ ++ <25%)”. For the same compound, the “CE: cognitive enhancer” value was “++ (5% ≤ ++ <25%)”, the “DP: anti-depressant” value was “++ (5% ≤ ++ <25%)” and the “HA: hallucinogen” value was “+ (LOQ ≤ + <5%)”. For the same compound, the “MS: mood stabilizer” value was “++ (5% ≤ ++ <25%)”, the “PS: anti-psychotic” value was “+ (LOQ ≤ + <5%)” and the “SD: sedative hypnotic” value was “+ (LOQ ≤ + <5%)”. For the same compound, the “UN: uncharacterized CNS activity” value was “+++ (25% ≤ +++ <50%)” and the “XG: anxiogenic” value was “+ (LOQ ≤ + <5%)”. With `Cc1cccc2c1[C@@H]([C@H]1CCCN1)OCCC2` [Compound I-104, (R)-2-((S)-9-methyl-1,3,4,5-tetrahydrobenzo[c]oxepin-1-yl)pyrrolidine] the “AD: ADHD” value was “+ (LOQ ≤ + <5%)”, the “AG: analgesic” value was “+++ (25% ≤ +++ <50%)” and the “AX: anxiolytic” value was “++ (5% ≤ ++ <25%)”. For the same compound, the “CE: cognitive enhancer” value was “+ (LOQ ≤ + <5%)”, the “DP: anti-depressant” value was “++ (5% ≤ ++ <25%)” and the “HA: hallucinogen” value was “+ (LOQ ≤ + <5%)”. For the same compound, the “MS: mood stabilizer” value was “+ (LOQ ≤ + <5%)”, the “PS: anti-psychotic” value was “+ (LOQ ≤ + <5%)” and the “SD: sedative hypnotic” value was “++ (5% ≤ ++ <25%)”. The “UN: uncharacterized CNS activity” value was “++ (5% ≤ ++ <25%)” and the “XG: anxiogenic” value was “+ (LOQ ≤ + <5%)”.
